One molecule from publication PMC10046769, “An Impedimetric Biosensor for Detection of Volatile Organic Compounds in Food” (Biosensors, 2023) can be followed below.

The target of the assay is T1, pig odorant-binding protein (pOBP) (Sus scrofa, UniProt P81245).
T1 construct: recombinant pOBP, GST tag removed by thrombin; monomer of 157 amino acids
T1 sequence (P81245 1-157): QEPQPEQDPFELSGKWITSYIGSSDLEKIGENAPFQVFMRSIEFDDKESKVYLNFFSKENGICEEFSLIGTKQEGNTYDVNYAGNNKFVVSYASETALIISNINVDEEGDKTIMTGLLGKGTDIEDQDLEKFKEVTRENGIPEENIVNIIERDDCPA
Put plainly: competitive FRET displacement of 1-AMA; also impedance (EIS) with immobilised pOBP.

One may read the Kd as the constant that tells how readily two partners part at equilibrium. Low values mean tighter binding, high ones weaker binding. Take `C=CC(O)CCCCC` (stereo not shown) [1-octen-3-ol]: the Kd amounted to 18.5 mM.
